Calls of active or inactive are those of the source. Cut-off read from the data, not from the text of the source: actives have a measured EC50 and inactives only a lower limit.
System: not listed separately
Experiment: Luminescence Cell-Based Dose Confirmation HTS to Identify Activators of 5'UTR Stem-Loop Driven Alpha-Synuclein mRNA Translation in H4 Neuroglioblastoma Cells. [Related pubchem assays: 1829 (Project Summary), 1814 (Primary HTS)]
Type: functional
Settings: not given
For `O=C(NN=C1C2CC3CC1CC(Cl)(C3)C2)c1ccccn1`, the EC50 was > 120 µM (not active).
With `Clc1ccc2c(c1)[C@H]1OCC[C@H]1[C@@H](c1ccco1)N2` the EC50 was 19.9 µM (active).
In the case of `CCn1c(Cn2nnc(-c3ccccc3)n2)nnc1SCC(=O)Nc1ccc(C(C)=O)cc1`, the EC50 is reported as > 120 µM (not active).
With `CC1=NC(=O)C(N=Nc2cccc(O)c2)N1c1ccccc1` (centres undefined) the EC50 was 15.5 µM (active).
For `Cc1nn(CC(=O)c2ccccc2Cl)c(C)c1[N+](=O)[O-]`, the EC50 was 38.2 µM (active).
For `NC(=NOC(=O)c1cccc([N+](=O)[O-])c1)c1cccnc1`, the EC50 was 3.61 µM (active).
For `CC(=O)N1c2ccc(S(=O)(=O)N3CCC(C(=O)NCc4ccccc4Cl)CC3)cc2CC1C` (centres undefined), the EC50 was > 120 µM (not active).
With `CCOC(=O)c1c(C)n[nH]c1N/N=C/c1cccnc1` the EC50 was > 120 µM (not active).
In the case of `CC1(C)C2CC=C(/C=N/NC(=O)c3ccc(Cl)cc3)C1C2` (centres undefined), the EC50 is reported as > 120 µM (not active).
For `CCOc1ccc(NC(=O)C(S)=NC2CCCCC2)cc1`, the EC50 was 61.6 µM (active).
For `CC(=O)C1=NOC(CNc2ncc(C(F)(F)F)cc2Cl)C1` (centres undefined), the EC50 was 15.7 µM (active).
With `CC(C)CC1NC(=O)N(CC(=O)c2ccc3c(c2)OCCO3)C1=O` (centres undefined) the EC50 was 0.298 µM (active).
For `Cc1nn(C(=O)c2ccoc2C)c(N)c1-c1ccccc1`, the EC50 was 5.93 µM (active).
With `CC(=O)N1CCc2cc(S(=O)(=O)NCCC(=O)Nc3ccc4c(c3)OCCO4)ccc21` the EC50 was 17.4 µM (active).
With `COc1ccc(COc2cc(-c3cccc(OC)c3)nc3ccc(NC(=O)C(C)C)cc23)cc1` the EC50 was > 120 µM (not active).

System: not listed separately
Experiment: Luminescence Cell-Based Dose Response HTS to Identify Activators of Luciferase Translation or Activity in H4 […] Cells. [Related pubchem assays: 1829 (Project Summary), 1814 (Primary HTS)]
Type: functional
Settings: not given
In the case of `O=C(NN=C1C2CC3CC1CC(Cl)(C3)C2)c1ccccn1`, the EC50 is reported as > 120 µM (not active).
With `Clc1ccc2c(c1)[C@H]1OCC[C@H]1[C@@H](c1ccco1)N2` the EC50 was 10.9 µM (active).
In the case of `CCn1c(Cn2nnc(-c3ccccc3)n2)nnc1SCC(=O)Nc1ccc(C(C)=O)cc1`, the EC50 is reported as 71.4 µM (active).
For `CCOc1ccc(N2C(=O)C(Cl)=C(Nc3ccccc3O)C2=O)cc1`, the EC50 was > 120 µM (not active).
With `CC1=NC(=O)C(N=Nc2cccc(O)c2)N1c1ccccc1` (centres undefined) the EC50 was 13.7 µM (active).
For `Cc1nn(CC(=O)c2ccccc2Cl)c(C)c1[N+](=O)[O-]`, the EC50 was 15.8 µM (active).
With `NC(=NOC(=O)c1cccc([N+](=O)[O-])c1)c1cccnc1` the EC50 was 7.46 µM (inconclusive).
With `CC(=O)N1c2ccc(S(=O)(=O)N3CCC(C(=O)NCc4ccccc4Cl)CC3)cc2CC1C` (centres undefined) the EC50 was > 120 µM (not active).
For `CCOC(=O)c1c(C)n[nH]c1N/N=C/c1cccnc1`, the EC50 was 14.7 µM (active).
With `CC1(C)C2CC=C(/C=N/NC(=O)c3ccc(Cl)cc3)C1C2` (centres undefined) the EC50 was 12.4 µM (active).
With `CCOc1ccc(NC(=O)C(S)=NC2CCCCC2)cc1` the EC50 was 21.1 µM (active).
In the case of `CC(=O)C1=NOC(CNc2ncc(C(F)(F)F)cc2Cl)C1` (centres undefined), the EC50 is reported as 17 µM (active).
In the case of `CC(C)CC1NC(=O)N(CC(=O)c2ccc3c(c2)OCCO3)C1=O` (centres undefined), the EC50 is reported as 1.48 µM (active).
In the case of `Cc1nn(C(=O)c2ccoc2C)c(N)c1-c1ccccc1`, the EC50 is reported as 26.9 µM (active).
For `CC(=O)N1CCc2cc(S(=O)(=O)NCCC(=O)Nc3ccc4c(c3)OCCO4)ccc21`, the EC50 was 9.85 µM (active).
In the case of `COc1ccc(COc2cc(-c3cccc(OC)c3)nc3ccc(NC(=O)C(C)C)cc23)cc1`, the EC50 is reported as > 120 µM (not active).

System: Streptococcus
Experiment: Group A Streptococcus viability loss, dose response, counter-screen for streptokinase expression inhibitor project, luminescence, BacTiterGlo (AID 1915);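 note: potency for reduction of bacterial viability or growth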
Type: functional, organism-based
Settings: not given
In the case of `Cc1nn(-c2ccc(Cl)cc2)c(O)c1/C=N/n1c(C)nc2ccccc2c1=O`, the EC50 is reported as 7.22 µM (active).
In the case of `Cn1ncc2c(Nc3ccc(Br)cc3)nc(Nc3ccc(Br)cc3)nc21`, the EC50 is reported as 2.38 µM (active).
With `CCOc1ccc(N2C(=O)/C(=C\NNC(=O)C3COc4ccccc4O3)c3ccccc3C2=O)cc1` (centres undefined) the EC50 was 5.75 µM (active).
With `CN(Cc1ccc(OC(F)F)cc1)Cc1nc(O)c2cc(Br)cc(Br)c2n1` the EC50 was > 150 µM (not active).

System: Streptococcus sp. 'group A'
Experiment: growth inhibition of control SK(-) GAS strain, dose response, counter-screen for streptokinase expression inhibitor project, luminescence, kanamycin, BacTiterGlo, confirmation (AID 1900)
Type: functional, organism-based
Settings: not given
In the case of `Cc1nn(-c2ccc(Cl)cc2)c(O)c1/C=N/n1c(C)nc2ccccc2c1=O`, the EC50 is reported as 3.48 µM (active).
With `Cn1ncc2c(Nc3ccc(Br)cc3)nc(Nc3ccc(Br)cc3)nc21` the EC50 was 1.01 µM (active).
For `CCOc1ccc(N2C(=O)/C(=C\NNC(=O)C3COc4ccccc4O3)c3ccccc3C2=O)cc1` (centres undefined), the EC50 was 1.63 µM (active).
In the case of `CN(Cc1ccc(OC(F)F)cc1)Cc1nc(O)c2cc(Br)cc(Br)c2n1`, the EC50 is reported as 4.31 µM (active).

Biological target: T1, Corticotropin-releasing factor receptor 2/Corticotropin-releasing factor-binding protein (Homo sapiens, UniProt P24387+Q13324)
T1 sequence (Q13324 whole entry): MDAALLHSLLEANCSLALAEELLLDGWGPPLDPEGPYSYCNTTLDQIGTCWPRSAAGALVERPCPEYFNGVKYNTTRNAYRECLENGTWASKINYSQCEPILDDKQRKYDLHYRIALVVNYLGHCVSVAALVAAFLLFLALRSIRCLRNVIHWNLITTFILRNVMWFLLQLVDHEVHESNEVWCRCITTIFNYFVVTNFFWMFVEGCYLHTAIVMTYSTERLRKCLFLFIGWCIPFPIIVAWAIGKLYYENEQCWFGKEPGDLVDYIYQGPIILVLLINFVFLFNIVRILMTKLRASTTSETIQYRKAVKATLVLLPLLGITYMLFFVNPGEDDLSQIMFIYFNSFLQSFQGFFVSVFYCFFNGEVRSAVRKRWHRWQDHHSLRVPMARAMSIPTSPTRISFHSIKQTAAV
T1 sequence (P24387 whole entry): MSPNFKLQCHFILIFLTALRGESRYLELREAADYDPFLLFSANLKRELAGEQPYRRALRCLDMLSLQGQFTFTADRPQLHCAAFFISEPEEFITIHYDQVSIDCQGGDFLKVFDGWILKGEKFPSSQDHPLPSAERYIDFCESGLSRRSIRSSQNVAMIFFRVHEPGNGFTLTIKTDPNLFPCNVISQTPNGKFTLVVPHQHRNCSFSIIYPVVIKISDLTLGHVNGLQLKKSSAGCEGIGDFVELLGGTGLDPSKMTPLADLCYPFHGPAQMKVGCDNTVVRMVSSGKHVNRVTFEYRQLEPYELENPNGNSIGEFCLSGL
Experiment: activators of CRF receptor 2 with binding protein – uHTS hits, confirmation (AID 602473)
Type: functional
Settings: read-out: EC50_Mean
With `COc1ccc(C(NC(=O)c2ccc(O)nc2)C(=O)Nc2ccc(C(C)C)cc2)cc1` (centres undefined) the EC50 was > 53 µM (inactive).
For `O=C(COC(=O)[C@H](Cc1ccccc1)NC(=O)c1ccco1)NCc1ccccc1`, the EC50 was 10.4 µM (active).
With `Cc1cccn2c(=O)c3cc(C#N)/c(=N\C(=O)c4cccnc4)n(CC4CCCO4)c3nc12` (centres undefined) the EC50 was > 53 µM (inactive).
For `O=C(NCc1cccc(Cl)c1)c1cccc(S(=O)(=O)N2CCCC2)c1`, the EC50 was > 53 µM (inactive).
With `Cc1nc2c(c(=O)c3ccccc3n2C)c(=O)n1C1CCCCCC1` the EC50 was 9.6 µM (active).
In the case of `CCOC(=O)/C(=C\c1ccc(N2CCC(c3ccccc3)=N2)cc1)C(C)=O`, the EC50 is reported as 7.05 µM (active).
With `CC(c1ccccc1C(O)(c1ccccc1)c1ccccc1)N(C)C` (centres undefined) the EC50 was 4.62 µM (active).
With `O=C(NC(C(=O)N/N=C/c1cccnc1)c1nnc(O)c2ccccc12)c1ccccc1` (centres undefined) the EC50 was 7.94 µM (active).

System: H4
Experiment: Luminescence Cell-Based Dose Response HTS to Identify Activators of 5'UTR Stem-Loop Driven Prion Protein mRNA Translation in H4 Neuroglioblastoma Cells. [Related pubchem assays: 1829 (Project Summary), 1814 (Primary HTS)]
Type: functional
Settings: Homo sapiens
In the case of `O=C(NN=C1C2CC3CC1CC(Cl)(C3)C2)c1ccccn1`, the EC50 is reported as > 120 µM (not active).
With `Clc1ccc2c(c1)[C@H]1OCC[C@H]1[C@@H](c1ccco1)N2` the EC50 was 9.48 µM (active).
With `CCn1c(Cn2nnc(-c3ccccc3)n2)nnc1SCC(=O)Nc1ccc(C(C)=O)cc1` the EC50 was 16.1 µM (active).
In the case of `CCOc1ccc(N2C(=O)C(Cl)=C(Nc3ccccc3O)C2=O)cc1`, the EC50 is reported as 0.107 µM (active).
For `CC1=NC(=O)C(N=Nc2cccc(O)c2)N1c1ccccc1` (centres undefined), the EC50 was 20.2 µM (active).
In the case of `Cc1nn(CC(=O)c2ccccc2Cl)c(C)c1[N+](=O)[O-]`, the EC50 is reported as 25.4 µM (active).
For `NC(=NOC(=O)c1cccc([N+](=O)[O-])c1)c1cccnc1`, the EC50 was > 120 µM (not active).
In the case of `CC(=O)N1c2ccc(S(=O)(=O)N3CCC(C(=O)NCc4ccccc4Cl)CC3)cc2CC1C` (centres undefined), the EC50 is reported as > 120 µM (not active).
For `CCOC(=O)c1c(C)n[nH]c1N/N=C/c1cccnc1`, the EC50 was > 120 µM (not active).
For `CC1(C)C2CC=C(/C=N/NC(=O)c3ccc(Cl)cc3)C1C2` (centres undefined), the EC50 was > 120 µM (not active).
For `CCOc1ccc(NC(=O)C(S)=NC2CCCCC2)cc1`, the EC50 was 11 µM (active).
In the case of `CC(=O)C1=NOC(CNc2ncc(C(F)(F)F)cc2Cl)C1` (centres undefined), the EC50 is reported as 16.2 µM (active).
For `CC(C)CC1NC(=O)N(CC(=O)c2ccc3c(c2)OCCO3)C1=O` (centres undefined), the EC50 was 6.39 µM (active).
With `Cc1nn(C(=O)c2ccoc2C)c(N)c1-c1ccccc1` the EC50 was 21.6 µM (active).
For `CC(=O)N1CCc2cc(S(=O)(=O)NCCC(=O)Nc3ccc4c(c3)OCCO4)ccc21`, the EC50 was 25.6 µM (active).
For `COc1ccc(COc2cc(-c3cccc(OC)c3)nc3ccc(NC(=O)C(C)C)cc23)cc1`, the EC50 was > 120 µM (not active).

Biological target: T2, Heat shock factor protein 1 (Mus musculus, UniProt P38532)
T2 sequence (P38532 whole entry): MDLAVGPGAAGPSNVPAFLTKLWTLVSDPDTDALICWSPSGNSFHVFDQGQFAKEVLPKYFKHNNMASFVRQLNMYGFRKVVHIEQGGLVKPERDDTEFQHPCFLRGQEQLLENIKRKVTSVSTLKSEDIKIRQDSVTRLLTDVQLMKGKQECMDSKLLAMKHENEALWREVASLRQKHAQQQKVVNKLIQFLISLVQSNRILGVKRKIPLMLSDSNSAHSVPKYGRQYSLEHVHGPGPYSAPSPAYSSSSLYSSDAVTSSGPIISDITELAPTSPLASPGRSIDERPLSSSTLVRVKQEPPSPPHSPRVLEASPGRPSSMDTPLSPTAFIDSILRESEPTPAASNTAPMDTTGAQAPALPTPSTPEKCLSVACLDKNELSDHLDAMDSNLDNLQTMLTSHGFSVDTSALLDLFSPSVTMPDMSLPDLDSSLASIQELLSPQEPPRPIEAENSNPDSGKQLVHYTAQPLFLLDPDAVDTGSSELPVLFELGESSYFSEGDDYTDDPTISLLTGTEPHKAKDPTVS
Experiment: inhibition of MG132-induced HSE-luciferase signal, confirmation, cell-based, NIH3T3, luminescence, dose retest (AID 2382);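 note: NIH3T3 fibroblasts with HSF1-driven luciferase reporter stressed by proteasome inhibitor MG132; luminescence from HSF1-driven luciferase expression after 8 hours of MG132 stress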
Type: functional
Settings: not given
With `COc1ccc(C(NC(=O)c2ccc(O)nc2)C(=O)Nc2ccc(C(C)C)cc2)cc1` (centres undefined) the EC50 was > 195 µM (not active).

Source: ChEMBL document CHEMBL1201862, “PubChem BioAssay data set” (2004)
